What was measured:
CFTR = biological target: T1, CFTR (Homo sapiens, UniProt P13569, DEL508-508); assay: CFTR protein expression (band C) in HBE cells from CF patients; assay type: cell-based; settings: 100 ng/ml Tα1 for 24 hours, cells from 5 CF patients
T1 construct: endogenous in cells; host or cells: primary HBE cells from lung transplants of CF patients
Method: Cells. Cell Lines and Cell Culture—Human bronchial epithelial (HBE) cells, homozygous for the […] mutation and its isogenic wild-type were obtained from lung transplants (CF patients) or lung resections (non-CF patients) (kindly provided by L J Galietta within the Italian Cystic Fibrosis Foundation). Cells were maintained at 37° C. in a humidified incubator in an atmosphere containing 5% CO2, and the experiments were done 5 days after plating (21, 22). Stable lentiviral-based transduction of the parental CFBE41o− cells (ΔF508/ΔF508), originally immortalized and characterized by Dr. D. Gruenert and co-workers (32) with either WT-CFTR or ΔF508-CFTR, was performed by Tranzyme, Inc. (Birmingham, AL). […]
CFTR Immunoblot Analysis. […] LiteAblotPlus chemiluminescence substrate (Euroclone S.p.A.), using ChemiDoc™ XRS+ Imagig system (Bio-Rad Laboratories) and blot quantification was obtained by densitometry image analysis using Image Lab 3.1.1 software (Bio-Rad).
The SV40 transformed CF airway epithelial cell line (CFBE41o−), homozygous for the ΔF508-CFTR mutation, was used (32). […] CFTR bands were quantified by densitometry and expressed as the C/B ratio. […]

[1] = tested on: A. fumigatus-infected C57BL/6 and Cftr−/− mice; assay: Lung inflammatory pathology and cell recruitment in Aspergillus-infected mice; assay type: in vivo; settings: 200 μg/kg/i.p. daily for 6 days, 7 days post-infection
Method: Mice. Wild-type (WT) inbred C57BL6 mice, 8 to 12 weeks old, were purchased from Charles River Breeding Laboratories (Calco, Italy). Genetically engineered homozygote Cftr^−/− mice (33) were bred at the Cystic Fibrosis core animal facility at San Raffaele Hospital, Milan, Italy. Experiments were performed following protocols approved by the institutional animal committee and in accordance with European Economic Community Council Directive as well as institutional animal care and use guidelines.
Infection and treatments. Mice were anesthetized by i.p. injection of 2.5% avertin (Sigma Chemical Co, St. Louis, MO) before intranasal instillation of 2×10^7 A. fumigatus (Af293) resting conidia/20 μl saline. For histology, paraffin-embedded tissue were stained with Periodic acid-Schiff (PAS), and BAL fluid collection was done as described (21, 22). […]
Aspergillus-infected mice were treated with 200 μg/kg/i.p. daily of Tα1 for 6 consecutive days beginning the day of the infection. Mice were monitored for lung inflammatory pathology and cell recruitment at 7 days post-infection. […] Differential cell count of mononuclear (MNC), polymorphonuclear (PMN) cells and eosinophils (EOS) was determined upon May Grunwald Giemsa staining. […]

T1 sequence (P13569 with tags, fused parts or gaps DEL508-508): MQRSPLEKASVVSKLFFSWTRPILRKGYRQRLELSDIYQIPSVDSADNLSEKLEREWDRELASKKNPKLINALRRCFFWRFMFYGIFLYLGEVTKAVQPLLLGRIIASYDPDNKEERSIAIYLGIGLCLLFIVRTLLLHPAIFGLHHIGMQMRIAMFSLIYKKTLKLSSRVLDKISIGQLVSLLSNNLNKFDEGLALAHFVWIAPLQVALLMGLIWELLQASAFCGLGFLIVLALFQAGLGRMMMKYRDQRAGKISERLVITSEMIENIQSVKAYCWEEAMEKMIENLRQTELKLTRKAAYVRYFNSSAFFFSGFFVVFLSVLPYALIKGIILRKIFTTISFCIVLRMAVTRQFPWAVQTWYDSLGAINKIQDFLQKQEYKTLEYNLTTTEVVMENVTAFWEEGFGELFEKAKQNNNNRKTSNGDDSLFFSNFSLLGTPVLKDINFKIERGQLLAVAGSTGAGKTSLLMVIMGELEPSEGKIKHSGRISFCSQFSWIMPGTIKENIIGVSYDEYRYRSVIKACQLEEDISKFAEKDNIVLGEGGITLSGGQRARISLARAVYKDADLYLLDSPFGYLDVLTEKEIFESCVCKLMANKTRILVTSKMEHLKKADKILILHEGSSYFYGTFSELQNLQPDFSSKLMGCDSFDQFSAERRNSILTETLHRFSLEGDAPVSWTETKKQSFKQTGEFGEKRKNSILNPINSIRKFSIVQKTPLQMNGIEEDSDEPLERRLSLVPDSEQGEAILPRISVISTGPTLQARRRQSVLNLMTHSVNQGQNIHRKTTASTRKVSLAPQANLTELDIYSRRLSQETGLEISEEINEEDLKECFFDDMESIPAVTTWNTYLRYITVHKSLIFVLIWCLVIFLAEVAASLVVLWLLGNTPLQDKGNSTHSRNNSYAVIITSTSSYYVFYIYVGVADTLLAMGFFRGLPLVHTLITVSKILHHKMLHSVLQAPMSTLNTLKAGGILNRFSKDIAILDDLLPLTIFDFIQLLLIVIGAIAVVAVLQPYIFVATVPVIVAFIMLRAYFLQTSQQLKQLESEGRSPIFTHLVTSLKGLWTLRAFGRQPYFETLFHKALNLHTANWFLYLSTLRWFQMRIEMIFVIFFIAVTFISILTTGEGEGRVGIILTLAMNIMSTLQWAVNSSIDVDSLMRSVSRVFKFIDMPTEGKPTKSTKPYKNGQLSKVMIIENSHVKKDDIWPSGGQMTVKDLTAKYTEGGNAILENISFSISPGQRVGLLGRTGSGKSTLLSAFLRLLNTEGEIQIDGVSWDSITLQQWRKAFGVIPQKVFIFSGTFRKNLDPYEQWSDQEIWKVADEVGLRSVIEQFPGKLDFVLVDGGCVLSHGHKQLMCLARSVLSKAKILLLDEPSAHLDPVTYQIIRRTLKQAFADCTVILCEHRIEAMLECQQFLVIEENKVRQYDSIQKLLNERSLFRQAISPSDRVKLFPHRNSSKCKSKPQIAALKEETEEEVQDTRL

## Ac-Ser-Asp-Ala-Ala-Val-Asp-Thr-Ser-Ser-Glu-Ile-Thr-Thr-Lys-Asp-Leu-Lys-Glu-Lys-Lys-Glu-Val-Val-Glu-Glu-Ala-Glu-Asn-O (Ac-SDAAVDTSSEITTKDLKEKKEVVEEAEN-OH; not fully specified; printed as Ac-Ser-Asp-Ala-Ala-Val-Asp-Thr-Ser-Ser-Glu-Ile-Thr-Thr-Lys-Asp-Leu-Lys-Glu-Lys-Lys-Glu-Val-Val-Glu-Glu-Ala-Glu-Asn-O; listed as Homo sapiens) [Tα1, naturally occurring polypeptide of 28 amino acid; supplied as purified sterile, lyophilized, acetylated polypeptide]
CFTR
  CF patients whose HBE cells showed increased expression of CFTR (band C): 3 patients
[1]; C57/BL6 mice
  local inflammatory cell recruitment and lung pathology (lung and BAL): significantly decreased
[1]; Cftr−/− mice
  local inflammatory cell recruitment and lung pathology (lung and BAL): significantly decreased
